Assay results: patent publication US20240122179A1, “AUXINIC HERBICIDES AND METHODS OF USE THEREOF” (CORTEVA AGRISCIENCE LLC, priority 2021, published 2024)
Read-outs that look alike come from different tables or passages of the source.

How the values were obtained:
[1] = test system: Amaranthus rudis (AMATA); assay: Postemergence herbicide evaluation, percent reduction in plant size vs untreated control, 21 days after treatment; assay type: in vivo, Amaranthus rudis (tall water hemp); details: Amaranthus tuberculatus, post-emergence, 504 h, AMATA, postemergence, read-out: Control/Injury; for pest or weed control at 140 g/ha: rate 140 g ae/ha; for pest or weed control at 280 g/ha: rate 280 g ae/ha
Outline: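 Growth-reduction values are percent decrease in plant size relative to untreated plants, scored 21 days post-application. Amaranthus rudis (2-8 leaves) received postemergence sprays at 140 or 280 g ae/ha, 187 L/ha, in a mixed acetone/DMSO/water/isopropanol carrier with crop oil concentrate. Greenhouse conditions were 25-28° C, 50-60% RH; 3-4 randomized replicates.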

[2] = test system: Ambrosia artemisiifolia (AMBEL); assay: as above; assay type: in vivo, Ambrosia artemisiifolia (common ragweed); details: post-emergence, 504 h, AMBEL, postemergence, read-out: Control/Injury; for pest or weed control at 140 g/ha: rate 140 g ae/ha; for pest or weed control at 280 g/ha: rate 280 g ae/ha
Outline: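 Test compounds at 140 or 280 g ae/ha were applied by track sprayer (187 L/ha, spray solution containing acetone/DMSO, isopropanol, crop oil, surfactant) to 2–8 leaf plants, 3–4 replicates. Plants were kept in a greenhouse at 25–28 °C. Size reduction was scored against untreated controls at 21 days.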

[3] = test system: Kochia scoparia (KCHSC); assay: as above; assay type: in vivo; details: Bassia scoparia, post-emergence, 504 h, KCHSC, postemergence, read-out: Control/Injury; for pest or weed control at 140 g/ha: rate 140 g ae/ha; for pest or weed control at 280 g/ha: rate 280 g ae/ha
Outline: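 Values are percent reduction in plant size against an untreated control, measured 21 days after a single postemergence spray at 140 or 280 g ae/ha (187 L/ha, 276 kPa). Treatments used 3-4 randomized complete-block replicates on 2 to 8 leaf-stage plants kept in a 25-28 °C greenhouse, with compounds in acetone/DMSO-based solvent containing crop oil and surfactant.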

[4] = test system: Amaranthus palmeri (AMAPA); assay: as above; assay type: in vivo, Amaranthus palmeri (Palmer amaranth); details: post-emergence, 504 h, postemergence, read-out: Control/Injury; for pest or weed control at 140 g/ha: rate 140 g ae/ha; for pest or weed control at 280 g/ha: rate 280 g ae/ha
Outline: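 Percent reduction in plant size relative to untreated plants, measured 21 days after track-sprayer application (187 L/ha) of 140 or 280 g ae/ha to Amaranthus palmeri at the 2 to 8 leaf stage. Randomized complete block, 3 or 4 replicates, greenhouse at 25 to 28° C; spray solution acetone/DMSO with isopropanol, water and crop oil concentrate.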

[5] = test system: Conyza canadensis (L.) (ERICA); assay: as above; assay type: in vivo, Conyza canadensis (L.) (Horseweed); details: Erigeron canadensis, post-emergence, 504 h, ERICA, postemergence, read-out: Control/Injury; for pest or weed control at 140 g/ha: rate 140 g ae/ha; for pest or weed control at 280 g/ha: rate 280 g ae/ha
Outline: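 Track-sprayer applications (187 L/ha, 276 kPa) of 140 or 280 g ae/ha, technical material dissolved in acetone/DMSO then diluted with crop oil and surfactant-containing solvent, to greenhouse Conyza canadensis at 2-8 leaves. After 21 days, size reduction relative to untreated plants was recorded; 3-4 randomized replicates.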

[6] = test system: Glycine max; assay: whole plant or invertebrate; details: for plant injury at 140 g/ha / plant injury at 280 g/ha: Glycine max, post-emergence, 504 h, read-out: Control/Injury
Procedure: Plants were grown in a soil media composed of 90% by volume Promix BX (Premier Tech Horticulture, Quakertown, PA) and 10% Profile Greens Grade (Profile Products LLC, Buffalo Grove, IL). Promix BX contains approximately 83% Sphagnum Peat Moss, 13% Perlite, 5% vermiculite, and proprietary amounts of limestone, starter fertilizer, and wetting agent. Profile Greens Grade is a sand-sized granule formed from calcining illite and montmorillonite clay. Several seeds of each species were planted in 10 cm square pots and top watered twice daily. Plant material was propagated in a warm greenhouse with temperature ranging from 25 to 28° C. and 50 to 60% relative humidity at the Corteva Global Headquarters (Indianapolis, Indiana, USA). Natural light was supplemented with 1000-watt metal halide overhead lamps with an average illumination of 500 μE m^−2 s^−1 photosynthetic active radiation for 16 consecutive hours each day. Plants were top-watered prior to herbicide application and sub-watered after herbicide application.
Appropriate amounts of test materials were weighed out into glass vials in their technical form to deliver either 140 or 280 g acid equivalent (ae)/ha. The samples were dissolved in 3 ml of Solvent 1. Solvent 1 is 97% acetone and 3% dimethyl sulfoxide and serves as a general-purpose solvent (GPS) for dissolving technical materials. […] The samples were then diluted to their final concentration using 17 ml of solvent 2 for a total of 20 ml of spray solution. Solvent 2 contains 41.58% GPS, 45.53% water, 11.88% isopropyl alcohol, 0.99% crop oil concentrate and 0.02% Trition X-155 surfactant. All percentages are listed on a volume basis. Dicamba diglycolamine was applied as a formulated herbicide, Clarity™ and diluted with solvent 2 to compare all materials in the same spray solution.
Herbicide applications were made to 3 to 4 replicates of each plant species at the 2 to 8 leaf stage, depending on the species. Treatments were applied with a research track-sprayer (Generation III Research Sprayer manufactured by DeVries Manufacturing in Hollandale, MN, USA) calibrated to deliver a spray volume of 187 L/ha. The track-sprayer was fitted with an 8003E nozzle from Spray Systems Company (North Avenue and Schmale Road, P.O. Box 7900, Wheaton, IL 60187), and used a spray pressure of 276 kPa pressure and a speed of 3.1 km/h. The nozzle height was 46 cm above the plant canopy. The experimental design used for the trials was a randomized complete block with 3 or 4 replications per treatment. After application, plants were placed on carts according to the randomization and returned to the greenhouse. Plants were sub-watered after treatment with Indianapolis city water or fertilized three times a week with a commercial fertilizer solution (Jack's Professional 15-5-15 4 Ca 2 Mg fertilizer (manufactured by JR PETERS INC., 6656 Grant Way, Allentown, PA 18106; www.jrpeters.com). Percent visual control assessments were made on a scale of 0 to 100% (where 0 was no control and 100 was complete plant death) at 7, 14, and 21 days after treatment.
In conformity with the methods outlined in Example 49, the effect of representative experimental compounds on the growth of Glycine max was determined at 2 different levels (respectively, 140 and 280 g acid equivalent (ae)/ha) of the experimental actives tested. Plants were treated with one of the compounds, a control plant was not treated. Twenty-one days after treatment, the plants were measured. The data is present as a percent reduction in plant size relative to the untreated control.

[7] = R-AMAPA, percent reduction vs untreated control, 21 days after treatment
[8] = percent reduction vs untreated control, 21 days after treatment
[9] = percent reduction vs untreated, 21 days after treatment

## COc1c(Cl)ccc(Cl)c1C(=O)Oc1ccc(Cl)cc1 [Compound A-76]
[1]
  pest or weed control at 140 g/ha: 68%
  pest or weed control at 280 g/ha: 67%
[2]
  pest or weed control at 140 g/ha: 80%
  pest or weed control at 280 g/ha: 83%
[3]
  pest or weed control at 140 g/ha: 83%
  pest or weed control at 280 g/ha: 87%
[4]; [7]
  pest or weed control at 140 g/ha: 55%
  pest or weed control at 280 g/ha: 65%
[5]; [8]
  pest or weed control at 140 g/ha: 68%
  pest or weed control at 280 g/ha: 55%
[6]
  plant injury at 140 g/ha: 4%
  plant injury at 280 g/ha: 4%

## COc1c(Cl)ccc(Cl)c1C(=O)Oc1cncnc1 [Compound A-66]
[1]
  pest or weed control at 140 g/ha: 0%
  pest or weed control at 280 g/ha: 2%
[2]
  pest or weed control at 140 g/ha: 15%
  pest or weed control at 280 g/ha: 15%
[3]
  pest or weed control at 140 g/ha: 0%
  pest or weed control at 280 g/ha: 0%
[4]; [7]
  pest or weed control at 140 g/ha: 13%
  pest or weed control at 280 g/ha: 5%
[5]; [8]
  pest or weed control at 140 g/ha: 0%
  pest or weed control at 280 g/ha: 2%
[6]; in vivo
  Control/Injury: 3

## COc1c(Cl)ccc(Cl)c1C(=O)ON1CCCCC1 [Compound A-92]
[1]
  pest or weed control at 140 g/ha: 63%
  pest or weed control at 280 g/ha: 92%
[2]
  pest or weed control at 140 g/ha: 92%
  pest or weed control at 280 g/ha: 96%
[3]; [8]
  pest or weed control at 140 g/ha: 83%
  pest or weed control at 280 g/ha: 98%
[4]; [7]
  pest or weed control at 140 g/ha: 78%
  pest or weed control at 280 g/ha: 80%
[5]; [8]
  pest or weed control at 140 g/ha: 85%
  pest or weed control at 280 g/ha: 92%
[6]
  plant injury at 140 g/ha: 2%
  plant injury at 280 g/ha: 4%

## COc1c(Cl)ccc(Cl)c1C(=O)NS(=O)(=O)c1nccn1C [Compound A-79]
[1]
  pest or weed control at 140 g/ha: 7%
  pest or weed control at 280 g/ha: 13%
[2]
  pest or weed control at 140 g/ha: 15%
  pest or weed control at 280 g/ha: 22%
[3]; [8]
  pest or weed control at 140 g/ha: 0%
  pest or weed control at 280 g/ha: 3%
[4]; [7]
  pest or weed control at 140 g/ha: 13%
  pest or weed control at 280 g/ha: 10%
[5]; [8]
  pest or weed control at 140 g/ha: 0%
  pest or weed control at 280 g/ha: 2%
[6]
  plant injury at 140 g/ha: 6%
  plant injury at 280 g/ha: 3%

## COc1c(Cl)ccc(Cl)c1C(=O)ON(C)C(=O)Nc1ccccc1 [Compound A-75]
[1]
  pest or weed control at 140 g/ha: 58%
  pest or weed control at 280 g/ha: 85%
[2]
  pest or weed control at 140 g/ha: 82%
  pest or weed control at 280 g/ha: 88%
[3]
  pest or weed control at 140 g/ha: 88%
  pest or weed control at 280 g/ha: 97%
[4]; [7]
  pest or weed control at 140 g/ha: 73%
  pest or weed control at 280 g/ha: 91%
[5]; [8]
  pest or weed control at 140 g/ha: 72%
  pest or weed control at 280 g/ha: 73%
[6]
  plant injury at 140 g/ha: 3%
  plant injury at 280 g/ha: 3%

## COc1c(Cl)ccc(Cl)c1C(=O)O/N=C(\N)CCC/C(N)=N/OC(=O)c1c(Cl)ccc(Cl)c1OC [Compound A-144]
[1]
  pest or weed control at 140 g/ha: 71%
  pest or weed control at 280 g/ha: 77%
[2]
  pest or weed control at 140 g/ha: 88%
  pest or weed control at 280 g/ha: 88%
[3]; [9]
  pest or weed control at 140 g/ha: 89%
  pest or weed control at 280 g/ha: 99%
[4]; [7]
  pest or weed control at 140 g/ha: 59%
  pest or weed control at 280 g/ha: 71%
[5]; [9]
  pest or weed control at 140 g/ha: 83%
  pest or weed control at 280 g/ha: 75%
[6]; in vivo
  Control/Injury: 0

## COc1c(Cl)ccc(Cl)c1C(=O)OCC[N+](C)(C)C [Compound A-63]
[1]
  pest or weed control at 140 g/ha: 58%
  pest or weed control at 280 g/ha: 77%
[2]
  pest or weed control at 140 g/ha: 82%
  pest or weed control at 280 g/ha: 97%
[3]
  pest or weed control at 140 g/ha: 92%
  pest or weed control at 280 g/ha: 97%
[4]; [7]
  pest or weed control at 140 g/ha: 73%
  pest or weed control at 280 g/ha: 87%
[5]; [8]
  pest or weed control at 140 g/ha: 85%
  pest or weed control at 280 g/ha: 92%
[6]; GLXMA (soybean crop injury), rate 140 g ae/ha, postemergence, percent reduction vs untreated control, 21 days after treatment
  Control/Injury: 2
[6]; GLXMA (soybean crop injury), rate 280 g ae/ha, postemergence, percent reduction vs untreated control, 21 days after treatment
  Control/Injury: 5

## COc1c(Cl)ccc(Cl)c1C(=O)NCc1ccccc1 [Compound A-114]
[1]
  pest or weed control at 140 g/ha: 0%
  pest or weed control at 280 g/ha: 5%
[2]
  pest or weed control at 140 g/ha: 5%
  pest or weed control at 280 g/ha: 0%
[3]; [9]
  pest or weed control at 140 g/ha: 0%
  pest or weed control at 280 g/ha: 0%
[4]; AMAPA
  pest or weed control at 140 g/ha: 5%
  pest or weed control at 280 g/ha: 5%
[5]
  pest or weed control at 140 g/ha: 2%
  pest or weed control at 280 g/ha: 7%
[6]; in vivo
  Control/Injury: 3
